# Reference: PubChem BioAssay (NCI)
# “And” between values parts separate entries of the source, which are not always exact repeats. Equal entries are not always repeated.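 1) Cells in 96-well plates. 2) Compound, 48 h, 5 concentrations. 3) Linear interpolation between surrounding doses. 4) Unreached endpoint = highest concentration. At the GI50, growth is halved. TGI is the concentration that stops growth completely.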
# Tested on: CCRF-CEM leukemia
# Experiment: growth of human tumour cells (NCI), 48 h
SMILES,GI50,TGI
O=C(NCc1ccc(Cn2c(=O)sn(-c3ccccc3)c2=O)cc1)OCc1ccc2cccc(O)c2n1,0.359 µM,> 100 µM
COC(c1ccc(C(C)(C)C)cc1)(c1ccc(C(C)(C)C)cc1)c1ccc(C(C)(C)C)cc1,–,> 100 µM
CC(C)c1[nH]nc2c1N=C(c1ccccc1Cl)c1cc([N+](=O)[O-])ccc1N2,5.34 µM,> 17.8 µM
COc1ccc(-c2nccn2-c2ccc(OC)cc2)cc1,23.5 µM,76.7 µM
O=C(/C=C/c1ccccc1)c1ccccc1,–,> 7.45 µM
CC(C)[C@H](O)C(=O)N[C@@H](C)C(=O)N[C@@H]1C(=O)N(C)CCc2ccccc21,> 100 µM,> 100 µM
C=CC(=O)N1CN(C(=O)C=C)CN(C(=O)C=C)C1,2.82 µM,9.78 µM
COc1ccc(-c2cnnn2-c2nonc2-n2cccc2)cc1,0.228 µM,3.85 µM
C#CCOc1cccc(Nc2ncnc3c(NC(=O)C=C)cccc23)c1,16.5 µM,> 100 µM
O=C(/C(=C\c1c(-c2ccccc2)[nH]c2ccccc12)S(=O)(=O)c1ccccc1)c1ccccc1,> 100 µM,> 100 µM
COc1ccc(C(=O)c2cc(OC)c(OC)c(OC)c2)cc1OC,–,> 100 µM
O=C1c2ccccc2-c2c1c1ccccc1c(=O)n2CCN1CCNCC1,0.671 µM,4.26 µM
CCCc1cc(=O)n2c(C(=O)Nc3ccc(Cl)cc3C)c(C(=O)Nc3ccc(F)cc3)sc2n1,16.4 µM,103 µM
Cc1ccc(OCCOCCOCCOCCOc2ccc(C)n(O)c2=S)c(=S)n1O,< 0.01 µM,> 100 µM
COc1c(C)n(CCO)ccc1=O,–,> 100 µM
COc1ccc(-c2ccc3c(N4CCOC[C@@H]4C)nc(N4CCOC[C@@H]4C)nc3n2)cc1CO,0.0102 µM and 0.059 µM,> 100 µM

SMILES,GI50,TGI
N[C@H](CCC(=O)N[C@@H](Cc1c[nH]c2ccccc12)C(=O)O)C(=O)O,> 100 µM,> 100 µM
COC(=O)c1cc2c(o1)-c1nccc3c1c(nc1ccccc13)C2=O,3.79 µM,15.5 µM
Nc1ccccc1O.O.O=C(O)C1[O][Sb][O]C1C(=O)O (configuration not stated),0.713 µM,–
O=C(c1ccco1)c1c(C(F)(F)F)n([O-])c2ccc(C(F)(F)F)cc2[n+]1=O,0.207 µM,0.793 µM
OC(c1cc(-c2ccc(C(F)(F)F)cc2)nc(C(F)(F)F)c1)C1CCCCN1 (configuration not stated),1.62 µM,3.53 µM and 4.81 µM
O=C(Nc1cc(Nc2ncccc2-c2ncnc3nc[nH]c23)ccc1F)c1cc(C(F)(F)F)cc(C(F)(F)F)c1,2.97 µM,> 10 µM
CC1(C)CN=C(NN=C(/C=C/c2ccc(C(F)(F)F)cc2)/C=C/c2ccc(C(F)(F)F)cc2)NC1,1.12 µM,4.17 µM
CCCCCCCCCCNC(=O)CI,0.194 µM,0.482 µM
CCc1ccc2c(c1)C(=O)c1c-2n(CCCN=[N+]=[N-])c(=O)c2cc([N+](=O)[O-])ccc12,> 50 µM,> 50 µM
Cc1cc(N/N=C/c2ccccn2)nc2ccccc12,0.25 µM,1.77 µM
Cn1c(=O)c2c(nc(C(=N)SCC(=O)O)n2C)n(C)c1=O,–,35.8 µM
COc1ccc(C(CC(=O)c2ccc3c(c2)OCO3)c2c(O)c3ccccc3oc2=O)cc1OC (configuration not stated),–,> 100 µM
Nc1cc(Br)c(-c2nnc(CCC(=O)c3nc4ccccc4[nH]3)o2)c(Br)c1,3.81 µM,> 100 µM
CC(C)(C)[Si](C)(C)OC1[C@@H](CNC(=O)NC(=O)CCl)O[C@@H](n2cnc3c(N)ncnc32)[C@H]1O[Si](C)(C)C(C)(C)C (some centres not stated),0.121 µM,0.326 µM
COc1ccc(/C(C)=C(\c2ccc(OCCN3CCCCCC3)cc2)c2ccc(OC(=O)C3CCCCC3)cc2)cc1,0.75 µM,9.39 µM

# Tested on: HCT-116 colon
# Experiment: growth of human tumour cells (NCI), 48 h
SMILES,GI50,TGI
O=C(NCc1ccc(Cn2c(=O)sn(-c3ccccc3)c2=O)cc1)OCc1ccc2cccc(O)c2n1,0.259 µM,1.14 µM
